# Values of other authors as cited in article PMC10814857, “Functional Classification and Interaction Selectivity Landscape of the Human SH3 Domain Superfamily” (Cells, 2024).
# Where two headings read alike, the source gives them in different places.
# Assays:
# SNX9 SH3 domain = settings: cited from earlier work
# SPTAN1 SH3 domain = molecular target: SPTAN1 SH3 domain; parameters: method as in ref [63] (a number printed in a supplementary file, which may have a reference list of its own: not looked up in the article's list); settings: SPTAN1, FL, Table S4; ref [63]; cited from earlier work
# LCK SH3 domain = settings: FL, Table S4, ref [74]; cited from earlier work
# CRK-1 SH3 domain = molecular target: CRK-1 SH3 domain; parameters: method as in ref [70] (a number printed in a supplementary file, which may have a reference list of its own: not looked up in the article's list); settings: CRK-1, ITC, Table S4; ref [70]; cited from earlier work
# SH3PXD2B-1/2 SH3 domains [1] = molecular target: SH3PXD2B-1/2 SH3 domains; parameters: method as in ref [68] (a number printed in a supplementary file, which may have a reference list of its own: not looked up in the article's list); settings: SH3PXD2B-1/2, FL, Table S4; ref [68]; cited from earlier work
# SH3PXD2B-1/2 SH3 domains [2] = molecular target: SH3PXD2B-1/2 SH3 domains; parameters: method as in ref [68] (a number printed in a supplementary file, which may have a reference list of its own: not looked up in the article's list); settings: SH3PXD2B-1/2, MST, Table S4; ref [68]; cited from earlier work
# [3] = molecular target: BAIAP2L1 (IRTKS) SH3 domain; settings: ITC, Table S4, ref [76]; cited from earlier work
# Description: page 6: […][…] […] PAK2 […] PXXXPR PXXXPR 1.05 ITC [34] TRSVI ITSN1-2 Synthetic […] Exceptional [W/F][R/W]xSx[A/ 53 ITC [29] peptide G][F/Y][L/V]xGP[ W/L] NCK1-2 N-WASP GP[…] … 147 HSQC [64] VA[…] 199 PLCG1 SOS1 AAPV[…] … 0.20mM SPR [75] AADS[…] 0.40mM AAES[…] 0.70mM AAIA[…] 0.28mM BAIAP2L1 EspFUR45 IPP[…] … 0.5 nM ITC [76] (IRTKS) 9 SORBS2- Synthetic […] Exceptional XRXGXAYLXYVX 38 ITC [29] 1 peptide Synthetic RL[…](L/P) ...
# FYN SH3 domain [4] = molecular target: FYN SH3 domain; parameters: method as in ref [20] (a number printed in a supplementary file, which may have a reference list of its own: not looked up in the article's list); settings: CD, Table S4, ref [20]; cited from earlier work
# FYN SH3 domain [5] = molecular target: FYN SH3 domain; parameters: method as in ref [20] (a number printed in a supplementary file, which may have a reference list of its own: not looked up in the article's list); settings: ITC, Table S4, ref [20]; cited from earlier work
# FYN SH3 domain [6] = molecular target: FYN SH3 domain; parameters: method as in ref [20] (a number printed in a supplementary file, which may have a reference list of its own: not looked up in the article's list); settings: NMR, Table S4, ref [20]; cited from earlier work
# AMPH SH3 domain = settings: g-radiation, Table S4, ref [80]; cited from earlier work
# Description: (§1) page 6: […] […] […] PAK2 […] PXXXPR PXXXPR 1.05 ITC [34] TRSVI ITSN1-2 Synthetic […] Exceptional [W/F][R/W]xSx[A/ 53 ITC [29] peptide G][F/Y][L/V]xGP[ W/L] NCK1-2 N-WASP GP[…] … 147 HSQC [64] VA[…] 199 PLCG1 SOS1 AAPV[…] … 0.20mM SPR [75] AADS[…] 0.40mM AAES[…] 0.70mM AAIA[…] 0.28mM BAIAP2L1 EspFUR45 IPP[…] … 0.5 nM ITC [76] (IRTKS) 9 SORBS2- Synthetic […] Exceptional XRXGXAYLXYVX 38 ITC [29] 1 peptide Synthetic RL[…](L/P) ...
# FYN SH3 domain [7] = settings: SPR, Table S4, ref [72]; cited from earlier work
# HCK SH3 domain = settings: SPR, Table S4, ref [72]; cited from earlier work
# CD2AP-1 (CMS) SH3 domain = settings: SPR, Table S4, ref [50, 82]; cited from earlier work
# Excerpt: page 7: […] E CD2AP-1 CD2 […] PX(P/A)XXR PXXXPR 100 SPR [50, (CMS) G 82] SH3KBP1- 1 (CIN85) 1 The underlined residues in the second column represent motifs associated with the published consensus PRMs, while the residues highlighted in green represent the proposed consensus PRM identified in the current study. 2 CD: Circular Dichroism Spectroscopy FL: fluorescence-based titrations; HSQC: Heteronuclear Single Quantum Coherence; ITC: Isothermal titration calorimetry; MST: microscale thermophoresis 7
# p85A SH3 domain = molecular target: p85A SH3 domain; parameters: method as in ref [62] (a number printed in a supplementary file, which may have a reference list of its own: not looked up in the article's list); settings: FL, Table S4, ref [62]; cited from earlier work
# PACSIN2 SH3 domain = molecular target: PACSIN2 SH3 domain; parameters: method as in ref [61] (a number printed in a supplementary file, which may have a reference list of its own: not looked up in the article's list); settings: PACSIN2, HSQC, Table S4; ref [61]; cited from earlier work
# PACSIN3 SH3 domain = molecular target: PACSIN3 SH3 domain; parameters: method as in ref [61] (a number printed in a supplementary file, which may have a reference list of its own: not looked up in the article's list); settings: PACSIN3, HSQC, Table S4; ref [61]; cited from earlier work
# PACSIN1 SH3 domain = molecular target: PACSIN1 SH3 domain; parameters: method as in ref [61] (a number printed in a supplementary file, which may have a reference list of its own: not looked up in the article's list); settings: PACSIN1, HSQC, Table S4; ref [61]; cited from earlier work
# STAM2 SH3 domain = settings: STAM2, FL, Table S4; ref [52]; cited from earlier work
# Description: as §1
# ITSN1-2 SH3 domain = settings: ITSN1-2, ITC, Table S4; ref [29]; cited from earlier work
# Description: as §1
substance,measurement,setting,value
AERLIPRRPAPPVPVPARIPSPR,Kd,SNX9 SH3 domain,0.3 µM
ASYPPVPPP [published Peptide41 (SPTAN1 ligand)],Kd,SPTAN1 SH3 domain,160 µM
ATLDPGMPTPPLPPRPANLG [published Tip peptide],Kd,LCK SH3 domain,16.8 µM
DNSPPPALPPKKRQSAPS [published C3G peptide],Kd,CRK-1 SH3 domain,~2 µM
GSHMGDAKQRSPKMRQRPPPRRDMTIPRGLNLPKPPIPPQVE [published SH3PXD2B peptide],Kd,SH3PXD2B-1/2 SH3 domains [1],11 µM
same,Kd,SH3PXD2B-1/2 SH3 domains [2],15 µM
IPPAPNWPAPTPP [published peptide EspFUR45],Kd,[3],0.0005 µM
PPRPLPVAPGSSKT [published peptide P2L],Kd,FYN SH3 domain [4],28 µM
same,Kd,FYN SH3 domain [5],16 µM
same,Kd,FYN SH3 domain [6],50 µM
PSRPNR [published Dynamin-I peptide],Kd,AMPH SH3 domain,0.19 µM
PVRPQVPLRPMT [published Nef peptide],Kd,FYN SH3 domain [7],202 µM
same,Kd,HCK SH3 domain,91 µM
QKGPPLPRPRVQPKPPHG [published CD2 peptide],Kd,CD2AP-1 (CMS) SH3 domain,100 µM
RKLPPRPSK [published synthetic peptide (p85A ligand)],Kd,p85A SH3 domain,9.1 µM
TKGPAPNPPPVLKV [published TRPV4 peptide],Kd,PACSIN2 SH3 domain,12.7 µM
same,Kd,PACSIN3 SH3 domain,68.6 µM
same,Kd,PACSIN1 SH3 domain,51.6 µM
TPMVNRENKPP [published UBPY peptide],Kd,STAM2 SH3 domain,27 µM
WRDSSGYVMGPW [published synthetic peptide (ITSN1-2 ligand)],Kd,ITSN1-2 SH3 domain,53 µM
